The source made the active and inactive calls. The rule behind the calls is not given here.
Test system: CCRIS mutagenicity, Ames/micronucleus/aberration tests
Assay: CCRIS mutagenicity studies
Conditions: Test System: AMES SALMONELLA TYPHIMURIUM
[1] = Strain/Indicator: TA98, Metabolic Activation: NONE, Method: STANDARD PLATE
[2] = Strain/Indicator: TA100, Metabolic Activation: NONE, Method: STANDARD PLATE
[3] = Strain/Indicator: TA1535, Metabolic Activation: NONE, Method: STANDARD PLATE
[4] = Strain/Indicator: TA100, Metabolic Activation: RAT, LIVER, S-9, AROCLOR 1254, Method: STANDARD PLATE
[5] = Strain/Indicator: TA98, Metabolic Activation: NONE, Method: PREINCUBATION
[6] = Strain/Indicator: TA100, Metabolic Activation: NONE, Method: PREINCUBATION

CNC(=O)Oc1ccc2c(c1)[C@]1(C)CCN(C)[C@@H]1N2C
mutagenic call (Strain/Indicator: TA97, Metabolic Activation: LIVER, S-9 (10%), Method: STANDARD PLATE): inactive; negative
mutagenic call (Strain/Indicator: TA97, Metabolic Activation: NONE, Method: STANDARD PLATE): inactive; negative
mutagenic call (Strain/Indicator: TA97, Metabolic Activation: S-9, Method: STANDARD PLATE): inactive; negative
mutagenic call (Strain/Indicator: TA98, Metabolic Activation: LIVER, S-9 (10%), Method: STANDARD PLATE): inactive; negative
mutagenic call [1]: inactive; negative
mutagenic call (Strain/Indicator: TA98, Metabolic Activation: S-9, Method: STANDARD PLATE): inactive; negative
mutagenic call (Strain/Indicator: TA100, Metabolic Activation: LIVER, S-9 (10%), Method: STANDARD PLATE): inactive; negative
mutagenic call [2]: inactive; negative
mutagenic call (Strain/Indicator: TA100, Metabolic Activation: S-9, Method: STANDARD PLATE): inactive; negative
mutagenic call (Strain/Indicator: TA102, Metabolic Activation: NONE, Method: STANDARD PLATE): inactive; negative
mutagenic call (Strain/Indicator: TA102, Metabolic Activation: S-9, Method: STANDARD PLATE): inactive; negative
mutagenic call (Strain/Indicator: TA104, Metabolic Activation: LIVER, S-9 (10%), Method: STANDARD PLATE): inactive; negative
mutagenic call (Strain/Indicator: TA104, Metabolic Activation: NONE, Method: STANDARD PLATE): inactive; negative
mutagenic call (Strain/Indicator: TA104, Metabolic Activation: S-9, Method: STANDARD PLATE): inactive; negative
mutagenic call (Strain/Indicator: TA1535, Metabolic Activation: LIVER, S-9 (10%), Method: STANDARD PLATE): inactive; negative
mutagenic call [3]: inactive; negative
mutagenic call (Strain/Indicator: TA1535, Metabolic Activation: S-9, Method: STANDARD PLATE): inactive; negative
mutagenic call (Strain/Indicator: TA1537, Metabolic Activation: LIVER, S-9 (10%), Method: STANDARD PLATE): inactive; negative
mutagenic call (Strain/Indicator: TA1537, Metabolic Activation: NONE, Method: STANDARD PLATE): inactive; negative
mutagenic call (Strain/Indicator: TA1537, Metabolic Activation: S-9, Method: STANDARD PLATE): inactive; negative
mutagenic call (Strain/Indicator: TA1538, Metabolic Activation: LIVER, S-9 (10%), Method: STANDARD PLATE): inactive; negative
mutagenic call (Strain/Indicator: TA1538, Metabolic Activation: NONE, Method: STANDARD PLATE): inactive; negative
mutagenic call (Strain/Indicator: TA1538, Metabolic Activation: S-9, Method: STANDARD PLATE): inactive; negative

Cl/C=C\CCl
mutagenic call [2]: active; positive
mutagenic call [4]: active; positive
mutagenic call [3]: active; positive
mutagenic call (Strain/Indicator: TA1535, Metabolic Activation: RAT, LIVER, S-9, AROCLOR 1254, Method: STANDARD PLATE): active; positive
mutagenic call (Strain/Indicator: TA1978, Metabolic Activation: NONE, Method: STANDARD PLATE): active; positive
mutagenic call (Strain/Indicator: TA1978, Metabolic Activation: RAT, LIVER, S-9, AROCLOR 1254, Method: STANDARD PLATE): active; positive

Cc1ccc2c(C)c3ccc4ccccc4c3nc2c1
mutagenic call (Strain/Indicator: TA97A, Metabolic Activation: NONE, Method: PREINCUBATION): active; positive
mutagenic call [5]: active; positive
mutagenic call [6]: active; positive
mutagenic call [4]: active; positive
mutagenic call (Strain/Indicator: TA102, Metabolic Activation: NONE, Method: PREINCUBATION): active; positive

Oc1ccc(O)c2ccccc12
mutagenic call (Strain/Indicator: TA104, Metabolic Activation: NONE, Method: PREINCUBATION): active; positive
mutagenic call (Strain/Indicator: TA2637, Metabolic Activation: RAT, LIVER, S-9, PHENOBARBITAL AND 5,6-BENZOFLAVONE, Method: PREINCUBATION): active; positive

O=[N+]([O-])c1ccc2ccc3c([N+](=O)[O-])c4ccccc4c4ccc1c2c34
mutagenic call (Strain/Indicator: TA98(1,8-DNP6), Metabolic Activation: NONE): active; positive
mutagenic call (Strain/Indicator: TA98(NR), Metabolic Activation: NONE): active; positive
mutagenic call (Strain/Indicator: TA98(NR), Metabolic Activation: NONE, Method: PREINCUBATION): active; positive
mutagenic call (Strain/Indicator: TA98, Metabolic Activation: NONE): active; positive
mutagenic call [5]: active; positive
mutagenic call [1]: active; positive
mutagenic call [2]: active; positive

Cc1cc(Cc2ccc(N)c(C)c2)ccc1N
mutagenic call [5]: inactive; negative
mutagenic call (Strain/Indicator: TA98, Metabolic Activation: RAT, LIVER, S-9, PCB, Method: PREINCUBATION): inactive; negative
mutagenic call [6]: inactive; negative
mutagenic call (Strain/Indicator: TA100, Metabolic Activation: RAT, LIVER, S-9, PCB, Method: PREINCUBATION): inactive; negative

CN(Cc1ccc(Cl)cc1)N=O
mutagenic call (Strain/Indicator: TA1535, Metabolic Activation: HAMSTER, LIVER, S-9, AROCLOR 1254, Method: STANDARD PLATE): active; positive
mutagenic call [3]: inactive; negative

O=C(O)/C=C/c1cccc([N+](=O)[O-])c1
mutagenic call [5]: inactive; negative
mutagenic call [1]: inactive; negative
mutagenic call (Strain/Indicator: TA98, Metabolic Activation: RAT, LIVER, S-9, AROCLOR 1254, Method: STANDARD PLATE): inactive; negative
mutagenic call [6]: active; positive
mutagenic call [2]: active; positive
mutagenic call (Strain/Indicator: TA100, Metabolic Activation: RAT, LIVER, S-9, AROCLOR 1254, Method: PREINCUBATION): active; positive
mutagenic call [4]: inactive; negative
mutagenic call (Strain/Indicator: TA1535, Metabolic Activation: NONE, Method: PREINCUBATION): active; positive
mutagenic call (Strain/Indicator: TA1537, Metabolic Activation: NONE, Method: PREINCUBATION): inactive; negative
mutagenic call (Strain/Indicator: TA1538, Metabolic Activation: NONE, Method: PREINCUBATION): inactive; negative
